Here are results for one compound from patent US10711041B2, “Lyophilisate containing a cyclic peptide of formula X1-[sequence]-X2” (priority 2013, dated 2020).

What all share (format): physicochemical
Data set [1] can be described thus: Breathing simulator, amount of aerosol available for inhalation. The following applies: nebulizers Type A and Type B. The method, then:
(§1) It is ramblingly known, that in practice from a generated aerosol only a part is available for the patient. Thus, for determining the amount of aerosol which is available for a user, trials with a breathing simulator were carried out. For investigating the particle size and for the implementation of the breathing simulation an aerosol from an aqueous solution of the cyclic peptide of amino acid sequence SEQ ID NO:1 was used. For generating aerosol different nebulizer types were used. The nebulizers A and B were so called “Mesh-Type nebulizers”.

Data set [2] in a line: Aerosol droplet size characterisation (laser diffraction / impactor).
From the text: By means of a nebulizer which converts aqueous solution into an aerosol, also the aqueous solutions of the cyclic peptides of amino acid sequence SEQ ID NO:1 to SEQ ID NO:6 may be converted into aerosols. Such aerosols can be characterized with respect to the medium droplet size, as well as to size distribution of the aerosol droplets. For that conventional methods are used, which are described also in pharmacopoeias. The one analytical method uses the cascade impactor in its actual construction, the “Next Generation Impactor”. Thereby the aerosol is conducted through a series of sieve plates, whereby the diameter of the holes is diminished with each plate and the amount of the holes is increased. In the other analytical method, the laser-diffraction measurement, the droplet sizes are determined by means of laser. The 2 important parameters which are determined during these measurements, one the one hand is the median of the diameter of all droplets, and on the other hand, the amount of droplets having a diameter of ≤5 μm. In the literature that diameter is described as a limit, under which inhaled aerosol particles arrive in fact in the lung.
as §1

Data set [3] can be described thus: Stability investigation of the lyophilisate (visual inspection, reverse HPLC). The method, then:
For that the lyophilisate was stored up to 24 months at 2 to 8° C. and up to 6 months at 25° C. at 60% relative humidity. Stability was investigated at different time points during that period. In particular the appearance, contents, as well as purity of the cyclic peptides were investigated. For that laboratory-common analytical processes were used, such as e.g. visual inspection and reverse HPLC.

Turning to `C[C@@H]1NC(=O)CNC(=O)[C@H](CCC(=O)O)NC(=O)[C@@H]2CCCN2C(=O)[C@H]([C@@H](C)O)NC(=O)[C@H](CCC(=O)O)NC(=O)[C@H](CCCNC(=N)N)NC(=O)[C@H](CCC(N)=O)NC(=O)CNC(=O)[C@@H](N)CSSC[C@@H](C(=O)O)NC(=O)[C@H](Cc2ccc(O)cc2)NC(=O)[C@H](Cc2c[nH]c3ccccc23)NC(=O)[C@@H]2CCCN2C(=O)[C@H](CCCCN)NC(=O)[C@H](C)NC(=O)[C@H](CCC(=O)O)NC1=O` [SEQ ID NO: 1], the “part of the aerosol available for inhalation (inhalation filter)” value in data set [1] is given as “predominant part”. The “amount of droplets with a diameter of ≤5 μm in the aerosol” value in data set [2] (all nebulizers) is reported as “at least 50%”. Besides, the “Amount of particles with Ø ≤5 μm” value amounted to 50% in data set [2] (nebulizer Type A), 70% in data set [2] (nebulizer Type B) and 65% in data set [2] (nebulizer Type C). For the same compound, the “Median particle diameter of aerosol” value worked out at 4.7 μm in data set [2] (nebulizer Type A), 3.3 μm in data set [2] (nebulizer Type B) and 3.7 μm in data set [2] (nebulizer Type C). The Amount/Contents of lyophilisate is 100% in data set [3] (storage 2-8° C., T = 0); 99% in data set [3] (storage 2-8° C., T = 24 M); 100% in data set [3] (storage 25° C./60% rH, T = 0); 99% in data set [3] (storage 25° C./60% rH, T = 6 M). Further, the “Purity of lyophilisate (stability study)” value in data set [3] (storage 2-8° C., T = 0) is 96%; in data set [3] (storage 2-8° C., T = 24 M) it was 96%; in data set [3] (storage 25° C./60% rH, T = 0) it was 96%; in data set [3] (storage 25° C./60% rH, T = 6 M), 95%. Moreover, the Appearence of lyophilisate entry in data set [3] (storage 2-8° C., T = 0 to T = 24 M) is reported as “white powder”; in data set [3] (storage 25° C./60% rH, T = 0 to T = 6 M) it was “white powder”.
